Assay results: patent US20240417410A1, “TRICYCLIC COMPOUNDS FOR THE TREATMENT OF CANCER” (Hoffmann-La Roche Inc., priority 2023, published 2024)

Assays:
KRAS G12C-BRAF complex = KRAS G12C-BRAF complex (Homo sapiens (Human), UniProt P01116+P62937, G12C); test: KRAS-BRAF with CYPA (500 nM) interaction assay (TR-FRET, Example 136); type: biochemical; conditions: KRAS G12C-BRAF disruption
Protocol: In this example, TR-FRET was also used to measure the compound or compound-CYPA dependent disruption of the KRAS G12C-BRAF complex. This protocol was also used to measure disruption of KRAS G12D or KRAS G12V binding to BRAF by a compound of the invention, respectively. In assay buffer containing 25 mM HEPES PH=7.4 (4-(2-hydroxyethyl)-1-piperazineethanesulfonic acid, Thermo, 15630080), 0.002% Tween20, 0.1% BSA, 100 mM NaCl, 5 mM MgCl2, 10 μM GMPPNP (Guanosine 5′-[β,γ-imido]triphosphate trisodium salt hydrate, Sigma, G0635), […] 384-well assay plate at final concentrations of 50 nM, 6.25 nM and 1 nM, respectively. Compound was present in plate wells as a 16-point 3-fold dilution series starting at a final concentration of 10 μM and incubated for 3 hours. A mixture of MAb Anti-6His-XL665 (Cisbio, 61HISXLB) and Mab anti-GST-TB cryptate (Cisbio, 61GSTTLB) was then added at a final concentration of 6.67 nM and 0.21 nM, respectively, and the plate was incubated for an additional 1.5 hours. TR-FRET signal was read on a PHERstar FSX microplate reader (Ex320 nm, Em 665/615 nm). Compounds that facilitate disruption of the KRAS-BRAF complex were identified as those eliciting a decrease in the TR-FRET ratio relative to DMSO control wells.

[1] = tested on: phosphorylation of ERK, KRAS G12V in SW620; test: pERK inhibition assay; type: cell-based; conditions: Homo sapiens, SW-620, 4 h, SW620 cells
Outline: (§1)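 NCI-H358 (KRAS G12C), AGS (G12D) and SW620 (G12V) cells plated overnight, then treated with compound for 4 h in 0.5% DMSO. After fixing and methanol permeabilisation, phospho-ERK was detected by in-cell ELISA (HRP/TMB, OD450). IC50 from a 4-parameter sigmoidal fit.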

[2] = tested on: phosphorylation of ERK, KRAS G12D in AGS cells; test: pERK inhibition assay; type: cell-based; conditions: Homo sapiens, AGS, 4 h
Outline: as §1

[3] = tested on: phosphorylation of ERK, KRAS G12C in NCI-H358 cells; test: pERK inhibition assay; type: cell-based; conditions: Homo sapiens, NCI-H358, 4 h
Outline: as §1

[4] = tested on: NCI-H358 cells (KRAS G12C); test: Cell viability assay (Cell Counting Kit-8, 3-day); type: cell-based, human; conditions: Homo sapiens, NCI-H358, 72 h, NCI-H358, 72 hrs incubation
Outline: (§2)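 72-hr compound treatment, 0.5% DMSO final; NCI-H358 seeded 5,000 cells/well, AGS and SW620 2,000 cells/well. Endpoint: CCK-8, 2-hr development, OD450 minus OD650.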

SW620 cells (KRAS G12V) = test: Cell viability assay (Cell Counting Kit-8, 3-day); type: cell-based, human; conditions: Homo sapiens, SW-620; SW620, 72 hrs incubation
Outline: as §2

AGS cells (KRAS G12D) = test: Cell viability assay (Cell Counting Kit-8, 3-day); type: cell-based, human; conditions: Homo sapiens, 72 h, 72 hrs incubation
Outline: as §2

Sequence of KRAS G12C-BRAF complex (P01116-2 other isoform, or with tags, fused parts or gaps G12C): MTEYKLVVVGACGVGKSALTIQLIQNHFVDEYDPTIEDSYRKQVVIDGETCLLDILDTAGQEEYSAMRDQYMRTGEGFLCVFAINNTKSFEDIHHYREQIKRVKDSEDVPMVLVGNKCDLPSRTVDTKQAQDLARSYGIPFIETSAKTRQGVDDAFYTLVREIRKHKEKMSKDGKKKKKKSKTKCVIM
Sequence of KRAS G12C-BRAF complex (P62937 whole entry): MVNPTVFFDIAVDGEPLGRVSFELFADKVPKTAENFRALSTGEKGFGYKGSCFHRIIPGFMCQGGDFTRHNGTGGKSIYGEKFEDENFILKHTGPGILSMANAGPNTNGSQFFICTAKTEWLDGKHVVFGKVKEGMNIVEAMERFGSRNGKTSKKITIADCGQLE

| SMILES | IC50 (KRAS G12C-BRAF complex) | IC50 [1] | IC50 [2] | IC50 [3] | IC50 [4] | IC50 (SW620 cells (KRAS G12V)) | IC50 (AGS cells (KRAS G12D)) |
| --- | --- | --- | --- | --- | --- | --- | --- |
| CO[C@@H](C)c1ncc(N2CCN(CC(F)F)CC2)cc1-c1c2c3cc(cc4c3n1CCC4)-c1csc(n1)C[C@H](NC(=O)[C@H]1[C@H](C)[C@@H]1C)C(=O)N1CCC[C@H](N1)C(=O)OCC(C)(C)C2 (atropisomer, axis not shown) [Example 109, (1r,2R,3S)-N-[(7S,13S)-20-[5-[4-(2,2-difluoroethyl)piperazin-1-yl]-2-[(1S)-1-methoxyethyl]-3-pyridyl]-17,17-dimethyl-8,14-dioxo-15-oxa-4-thia-9,21,30,31-tetrazahexacyclo[23.3.1.1^2,5.1^9,13.0^19,27.0^21,26]hentriaconta-1 (28),2,5 (31), 19,25 (29),26-hexaen-7-yl]-2,3-dimethyl-cyclopropanecarboxamide] | 6 nM | 0.3 nM | 4.1 nM | 0.9 nM | 2.8 nM | 0.6 nM | 5.1 nM |
| CO[C@@H](C)c1ncc(N2CCN(C)CC2)cc1-c1c2c3cc(cc4c3n1CCC4)-c1csc(n1)C[C@H](NC(=O)[C@H]1C[C@@H]1C)C(=O)N1CCC[C@H](N1)C(=O)OCC(C)(C)C2 (atropisomer, axis not shown; (M)) [Example 2, (1S,2S)-N-[(7S,13S)-(20M)-20-[2-[(1S)-1-methoxyethyl]-5-(4-methylpiperazin-1-yl)-3-pyridyl]-17,17-dimethyl-8,14-dioxo-15-oxa-4-thia-9,21,30,31-tetrazahexacyclo[23.3.1.1^2,5.1^9,13.0^19,27.0^21,26]hentriaconta-1 (28),2,5 (31), 19,25 (29),26-hexaen-7-yl]-2-methyl-cyclopropanecarboxamide] | 28.8 nM | 1.4 nM | 3 nM | 3.4 nM | 10.1 nM | 1.2 nM | 29.9 nM |
| CO[C@@H](C)c1ncc(N2CCN(CC(F)(F)F)CC2)cc1-c1c2c3cc(cc4c3n1CCO4)-c1csc(n1)C[C@H](NC(=O)[C@H]1C[C@@H]1C)C(=O)N1CCC[C@H](N1)C(=O)OCC(C)(C)C2 (atropisomer, axis not shown; (M)) [Example 5, (1S,2S)-N-[(7S,13S)-(20M)-20-[2-[(1S)-1-methoxyethyl]-5-[4-(2,2,2-trifluoroethyl)piperazin-1-yl]-3-pyridyl]-17,17-dimethyl-8,14-dioxo-15,24-dioxa-4-thia-9,21,30,31-tetrazahexacyclo[23.3.1.1^2,5.1^9,13.0^19,27.0^21,26]hentriaconta-1 (28),2,5 (31), 19,25 (29),26-hexaen-7-yl]-2-methyl-cyclopropanecarboxamide] | 34.8 nM | 2.8 nM | 21.2 nM | 6.2 nM | 17.3 nM | 4.6 nM | 70 nM |
| CO[C@@H](C)c1ncc(N2CCOCC2)cc1-c1c2c3cc(cc4c3n1CCC4)-c1csc(n1)C[C@H](NC(=O)[C@H]1C[C@@H]1C(F)F)C(=O)N1CCC[C@H](N1)C(=O)OCC(C)(C)C2 (atropisomer, axis not shown; (M)) [Example 6, (1S,2S)-2-(difluoromethyl)-N-[(7S,13S)-(20M)-20-[2-[(1S)-1-methoxyethyl]-5-morpholino-3-pyridyl]-17,17-dimethyl-8,14-dioxo-15-oxa-4-thia-9,21,30,31-tetrazahexacyclo[23.3.1.1^2,5.1^9,13.0^19,27.0^21,26]hentriaconta-1 (28),2,5 (31), 19,25 (29),26-hexaen-7-yl]cyclopropanecarboxamide] | 11.1 nM | 0.8 nM | 5.6 nM | 1.4 nM | 3 nM | 1.6 nM | 19.4 nM |
| CO[C@@H](C)c1ncc(N2CCOCC2)cc1-c1c2c3cc(cc4c3n1CCC4)-c1csc(n1)C[C@H](NC(=O)[C@H]1[C@@H]3COC[C@@H]31)C(=O)N1CCC[C@H](N1)C(=O)OCC(C)(C)C2 (atropisomer, axis not shown; (M)) [Example 7, (1S,5R,6r)-N-[(7S,13S)-(20M)-20-[2-[(1S)-1-methoxyethyl]-5-morpholino-3-pyridyl]-17,17-dimethyl-8,14-dioxo-15-oxa-4-thia-9,21,30,31-tetrazahexacyclo[23.3.1.1^2,5.1^9,13.0^19,27.0^21,26]hentriaconta-1 (28),2,5 (31), 19,25 (29),26-hexaen-7-yl]-3-oxabicyclo[3.1.0]hexane-6-carboxamide] | 9.4 nM | 1.2 nM | 7.9 nM | 1.6 nM | 2.4 nM | 0.8 nM | 13.1 nM |
| CO[C@@H](C)c1ncc(N2CCOCC2)cc1-c1c2c3cc(cc4c3n1CCO4)-c1csc(n1)C[C@H](NC(=O)[C@H]1C[C@@H]1C)C(=O)N1CCC[C@H](N1)C(=O)OCC(C)(C)C2 (atropisomer, axis not shown; (M)) [Example 8, (1S,2S)-N-[(7S,13S)-(20M)-20-[2-[(1S)-1-methoxyethyl]-5-morpholino-3-pyridyl]-17,17-dimethyl-8,14-dioxo-15,24-dioxa-4-thia-9,21,30,31-tetrazahexacyclo[23.3.1.1^2,5.1^9,13.0^19,27.0^21,26]hentriaconta-1 (28),2,5 (31), 19,25 (29),26-hexaen-7-yl]-2-methyl-cyclopropanecarboxamide] | 23.7 nM | 1.2 nM | 7.1 nM | 2.6 nM | 5.9 nM | 1.1 nM | 18.7 nM |
| CO[C@@H](C)c1ncc(N2CCOCC2)cc1-c1c2c3cc(cc4c3n1CCO4)-c1csc(n1)C[C@H](NC(=O)[C@H]1C[C@@H]1C(F)F)C(=O)N1CCC[C@H](N1)C(=O)OCC(C)(C)C2 (atropisomer, axis not shown; (M)) [Example 9, (1S,2S)-2-(difluoromethyl)-N-[(7S,13S)-(20M)-20-[2-[(1S)-1-methoxyethyl]-5-morpholino-3-pyridyl]-17,17-dimethyl-8,14-dioxo-15,24-dioxa-4-thia-9,21,30,31-tetrazahexacyclo[23.3.1.1^2,5.1^9,13.0^19,27.0^21,26]hentriaconta-1 (28),2,5 (31), 19,25 (29),26-hexaen-7-yl]cyclopropanecarboxamide] | 21.1 nM | 0.8 nM | 1.8 nM | 2.3 nM | 2.8 nM | < 0.6 nM | 7.6 nM |
| CO[C@@H](C)c1ncc(N2CCOCC2)cc1-c1c2c3cc(cc4c3n1CCO4)-c1csc(n1)C[C@H](NC(=O)[C@H]1[C@@H]3COC[C@@H]31)C(=O)N1CCC[C@H](N1)C(=O)OCC(C)(C)C2 (atropisomer, axis not shown; (M)) [Example 10, (1S,5R,6r)-N-[(7S,13S)-(20M)-20-[2-[(1S)-1-methoxyethyl]-5-morpholino-3-pyridyl]-17,17-dimethyl-8,14-dioxo-15,24-dioxa-4-thia-9,21,30,31-tetrazahexacyclo[23.3.1.1^2,5.1^9,13.0^19,27.0^21,26]hentriaconta-1 (28),2,5 (31), 19,25 (29),26-hexaen-7-yl]-3-oxabicyclo[3.1.0]hexane-6-carboxamide] | 5.9 nM | 1.2 nM | 1.4 nM | 3.3 nM | 2.2 nM | < 0.6 nM | 4.6 nM |
| CO[C@@H](C)c1ncc(N2CCN(CC(F)(F)F)CC2)cc1-c1c2c3cc(cc4c3n1CCO4)-c1csc(n1)C[C@H](NC(=O)[C@H]1C[C@@H]1C(F)F)C(=O)N1CCC[C@H](N1)C(=O)OCC(C)(C)C2 (atropisomer, axis not shown; (M)) [Example 11, (1S,2S)-2-(difluoromethyl)-N-[(7S,13S)-(20M)-20-[2-[(1S)-1-methoxyethyl]-5-[4-(2,2,2-trifluoroethyl)piperazin-1-yl]-3-pyridyl]-17,17-dimethyl-8,14-dioxo-15,24-dioxa-4-thia-9,21,30,31-tetrazahexacyclo[23.3.1.1^2,5.1^9,13.0^19,27.0^21,26]hentriaconta-1 (28),2,5 (31),19,25 (29),26-hexaen-7-yl]cyclopropanecarboxamide] | 12.4 nM | 0.8 nM | 2.9 nM | 5.1 nM | 18.8 nM | 2.4 nM | 38.4 nM |
